Laboratory results from patent US11679107B2 (Eisai R&D Management Co., Ltd., priority 2018, dated 2023).
Where two headings read alike, the source gives them in different places.

Experiments:
[1] = tested on: NCI-H1568 cells (high MCL1); assay: Cell proliferation and viability, CellTiter-Glo, 72 hours; format: cell-based; conditions: for GI50: geometric mean
Summary of the method: (§1)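 RPMI-1640/10% FBS (Panc: + insulin, FBS 15%); 11-pt half-log dose, ~10 μM-100 pM, 0.1% DMSO; 37° C, 5% CO2; ATP luminescence read; % inhibition vs T0 and vehicle, −100% cidal to 100% uninhibited growth.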

[2] = tested on: Panc 05.04 cells (SF3b K700E mutant); assay: as above; format: cell-based; conditions: for GI50: geometric mean
Summary of the method: as §1

[3] = molecular target: T1, SF3b complexes (Homo sapiens, UniProt O75533+Q7RTV0); assay: Scintillation proximity assay (SPA) with [3H]-labelled pladienolide probe; format: binding; conditions: SF3B1 (WT); geometric mean; read-out: SPA-ATS GMean IC50 (nM) SF3B1 (WT)
T1 construct: endogenous in cells; host or cells: Nuclear extracts; A HeLa S3 extract preparation is described for the in vitro splicing assay
Summary of the method: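 SF3b complexes captured from nuclear extracts on anti-SF3B1 antibody SPA beads; test compounds pre-incubated 30 min before 2.5 nM [3H]-pladienolide probe added, then 30 min incubation. Bound probe read by scintillation; values from non-linear regression of concentration–response curves.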

[4] = tested on: Ad2 variant pre-mRNAs spliced in HeLa S3 nuclear extracts; assay: In vitro splicing assay (IVS), RT-qPCR of spliced product; format: biochemical; conditions: for IC50: geometric mean; for Ratio Ad2.1/2.2: ratio of IVS IC50 Ad2.1 to Ad2.2
Summary of the method: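 Read-out is one-step TaqMan RT-qPCR of spliced Ad2 mRNA with Ftz as reference, normalized to DMSO and fit by non-linear regression. Reactions held HeLa S3 nuclear extract, 2 ng Ad2-derived pre-mRNA and test compound, with 15 min preincubation. Splicing was started with ATP-containing activation buffer and run 90 min at 30 °C.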

[5] = 72 h, NCIH1568.1, -100% = cidal, 0% = static, 100% = uninhibited growth
[6] = NCI-H1568, 72 h, read-out: CTGlo-ATS GMean GI50 (nM) 72 h NCIH1568.1, 72 h, NCIH1568.1
[7] = 72 h, PANC0504.1, -100% = cidal, 0% = static, 100% = uninhibited growth
[8] = Panc 05.04, 72 h, read-out: CTGlo-ATS GMean GI50 (nM) 72 h PANC0504.1, 72 h, PANC0504.1
[9] = Ad2.1 pre-mRNA substrate, read-out: qPCR-IVS-ATS GMean IC50 (nM) Ad2.1
[10] = Ad2.2 pre-mRNA substrate, read-out: qPCR-IVS-ATS GMean IC50 (nM) Ad2.2
[11] = NCI-H1568, read-out: CTGlo-ATS GMean GI50 (nM) 72 h NCIH1568.1, NCIH1568.1 cells, 72 h
[12] = NCIH1568.1 cells, 72 h, −100% cidal, 0% static, 100% maximal growth
[13] = PANC0504.1 cells, 72 h, −100% cidal, 0% static, 100% maximal growth
[14] = Panc 05.04, read-out: CTGlo-ATS GMean GI50 (nM) 72 h PANC0504.1, PANC0504.1 cells, 72 h
[15] = NCI-H1568, 72 h, read-out: CTGlo-ATS GMean GI50 (nM) 72 h NCIH1568.1, NCIH1568.1 cells, 72 h
[16] = Panc 05.04, 72 h, read-out: CTGlo-ATS GMean GI50 (nM) 72 h PANC0504.1, PANC0504.1 cells, 72 h

| SMILES | CTGlo-ATS Mean MinResponse % 72 h NCIH1568.1 [1, 5] [%] | GI50 [1, 6] [nM] | CTGlo-ATS Mean MinResponse % 72 h PANC0504.1 [2, 7] [%] | GI50 [2, 8] [nM] | IC50 [3] [nM] | IC50 [4, 9] [nM] | IC50 [4, 10] [nM] | Ratio Ad2.1/2.2 [4] | GI50 [1, 11] [nM] | CTGlo-ATS Mean MinResponse % 72 h NCIH1568.1 [1, 12] [%] | CTGlo-ATS Mean MinResponse % 72 h PANC0504.1 [2, 13] [%] | GI50 [2, 14] [nM] | GI50 [1, 15] [nM] | GI50 [2, 16] [nM] | GI50 ([1]; NCI-H1568, read-out: CTGlo-ATS GMean GI50 (nM) 72 h NCIH1568.1, 72 h, NCIH1568.1) [nM] | GI50 ([2]; Panc 05.04, read-out: CTGlo-ATS GMean GI50 (nM) 72 h PANC0504.1, 72 h, PANC0504.1) [nM] |
| --- | --- | --- | --- | --- | --- | --- | --- | --- | --- | --- | --- | --- | --- | --- | --- | --- |
| C/C(=C\c1cc(F)cc(N2CCOCC2)c1)[C@H]1OC(=O)C[C@H](O)CC[C@H](C)[C@@H](OC(=O)NCCCN2CCOCC2)/C=C/[C@@H]1C [Compound 241, [(2S,3S,4E,6R,7S,10R)-2-[(E)-1-(3-fluoro-5-morpholin-4-ylphenyl)prop-1-en-2-yl]-10-hydroxy-3,7-dimethyl-12-oxo-1-oxacyclododec-4-en-6-yl] N-(3-morpholin-4-ylpropyl)carbamate] | −59.521 | 225 | −88.873 | 120 | 20.5 | > 25000 | 130 | 191.917 |  |  |  |  |  |  |  |  |
| C/C(=C\c1cc(F)cc(-n2ccnc2)c1)[C@H]1OC(=O)C[C@H](O)CC[C@H](C)[C@@H](OC(=O)N2CCN(C)CC2)/C=C/[C@@H]1C [Compound 60] |  |  |  |  | 2.99 | > 25000 | 55.5 |  | 29.9 | −42.456 | −87.159 | 26.7 |  |  |  |  |
| C/C(=C\c1cc(F)cc(F)c1)[C@H]1OC(=O)C[C@H](O)CC[C@H](C)[C@@H](OC(=O)N2CCN(C)CC2)/C=C/[C@@H]1C [Compound 28] |  |  |  |  | 10.1 | 8.55 | 61.5 |  |  | −39.539 | −41.132 |  | 89.6 | 42.9 |  |  |
| C/C(=C\c1ccc(C)c(N2CCCC2=O)c1)[C@H]1OC(=O)C[C@H](O)CC[C@H](C)[C@@H](OC(=O)N2CCN(C)CC2)/C=C/[C@@H]1C [Compound 207, [(2S,3S,4E,6R,7S,10R)-10-hydroxy-3,7-dimethyl-2-[(E)-1-[4-methyl-3-(2-oxopyrrolidin-1-yl)phenyl]prop-1-en-2-yl]-12-oxo-1-oxacyclododec-4-en-6-yl] 4-methylpiperazine-1-carboxylate] | −63.380 |  | −92.266 |  | 3.46 | 22.5 | 15.5 | 1.451 |  |  |  |  |  |  | 16.9 | 15.1 |
| C/C(=C\c1cc(F)cc(S(=O)(=O)N2CCCC2)c1)[C@H]1OC(=O)C[C@H](O)CC[C@H](C)[C@@H](OC(=O)N2CCN(C)CC2)/C=C/[C@@H]1C [Compound 197, [(2S,3S,4E,6R,7S,10R)-2-[(E)-1-(3-fluoro-5-pyrrolidin-1-ylsulfonylphenyl)prop-1-en-2-yl]-10-hydroxy-3,7-dimethyl-12-oxo-1-oxacyclododec-4-en-6-yl] 4-methylpiperazine-1-carboxylate] | −69.290 | 4.69 | −91.100 | 3.53 | 2.67 | 98.5 | 22.8 | 4.318 |  |  |  |  |  |  |  |  |
| C/C(=C\c1cc(Cl)cc(N2CCOCC2)c1)[C@H]1OC(=O)C[C@H](O)CC[C@H](C)[C@@H](OC(=O)N2CCN(C)CC2)/C=C/[C@@H]1C [Compound 20] |  |  |  |  | 7.76 | 61.3 | 40.3 |  | 17.6 | −68.668 | −78.467 | 14.6 |  |  |  |  |
| C/C(=C\c1cc(F)cc(N2CCOCC2)c1)[C@H]1OC(=O)C[C@H](O)CC[C@H](C)[C@@H](OC(=O)N2CCN(C3CCCC3)CC2)/C=C/[C@@H]1C [Compound 27] |  |  |  |  | 10.5 | 39.9 | 42.3 |  | 12.3 | −71.773 | −84.822 | 11.9 |  |  |  |  |
| C/C(=C\c1ccc2cn[nH]c2c1)[C@H]1OC(=O)C[C@H](O)CC[C@H](C)[C@@H](OC(=O)N2CCN(C)CC2)/C=C/[C@@H]1C [Compound 4] |  |  |  |  | 3.8 | > 25000 | 58.7 |  | 15.5 | −46.416 | −27.423 | 26.9 |  |  |  |  |
| C/C(=C\c1cnn(C)c1)[C@H]1OC(=O)C[C@H](O)CC[C@H](C)[C@@H](OC(=O)N2CCN(C)CC2)/C=C/[C@@H]1C [Compound 103] |  |  |  |  | 258 | > 25000 | 4260 |  |  | 78.168 | 80.958 |  | > 10000 | > 10000 |  |  |
